The text below walks through data of BindingDB's records for doi:10.1111/cbdd.12580 (Sichuan University, 2015).

One assay concerns the target T1, Acetylcholinesterase (Rattus norvegicus, UniProt P37136).
T1 sequence (P37136 whole entry): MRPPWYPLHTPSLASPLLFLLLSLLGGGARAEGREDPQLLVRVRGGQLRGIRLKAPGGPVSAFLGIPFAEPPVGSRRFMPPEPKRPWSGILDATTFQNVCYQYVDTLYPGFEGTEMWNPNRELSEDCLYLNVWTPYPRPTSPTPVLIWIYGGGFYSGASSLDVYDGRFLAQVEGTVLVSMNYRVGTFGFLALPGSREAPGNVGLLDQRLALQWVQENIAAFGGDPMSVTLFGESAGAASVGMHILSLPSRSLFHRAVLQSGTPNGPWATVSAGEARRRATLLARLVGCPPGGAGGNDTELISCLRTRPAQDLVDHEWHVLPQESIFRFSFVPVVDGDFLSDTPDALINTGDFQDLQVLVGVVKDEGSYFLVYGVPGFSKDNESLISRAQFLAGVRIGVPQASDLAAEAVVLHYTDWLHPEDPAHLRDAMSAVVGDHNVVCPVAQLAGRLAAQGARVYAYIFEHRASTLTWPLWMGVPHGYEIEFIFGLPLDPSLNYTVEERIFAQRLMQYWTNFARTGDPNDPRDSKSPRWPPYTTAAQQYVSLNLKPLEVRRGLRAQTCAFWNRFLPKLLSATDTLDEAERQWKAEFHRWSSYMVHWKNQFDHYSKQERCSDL
In words: Modified Ellman Assay. Here is the method:
(§1) Then, 5,5'-dithiobis-2-nitrobenzoic acid (DTNB, 0.2%, 30 μL) (J&K Scientific) was added.

Assay [1] addresses Carboxylic ester hydrolase (Rattus norvegicus, UniProt Q9JKC1). Nature of the assay: Modified Ellman Assay. As to the method: as §1
On the technique in general: In Ellman's method for cholinesterases, released thiocholine reacts with DTNB.

Chain of Carboxylic ester hydrolase (Q9JKC1 whole entry): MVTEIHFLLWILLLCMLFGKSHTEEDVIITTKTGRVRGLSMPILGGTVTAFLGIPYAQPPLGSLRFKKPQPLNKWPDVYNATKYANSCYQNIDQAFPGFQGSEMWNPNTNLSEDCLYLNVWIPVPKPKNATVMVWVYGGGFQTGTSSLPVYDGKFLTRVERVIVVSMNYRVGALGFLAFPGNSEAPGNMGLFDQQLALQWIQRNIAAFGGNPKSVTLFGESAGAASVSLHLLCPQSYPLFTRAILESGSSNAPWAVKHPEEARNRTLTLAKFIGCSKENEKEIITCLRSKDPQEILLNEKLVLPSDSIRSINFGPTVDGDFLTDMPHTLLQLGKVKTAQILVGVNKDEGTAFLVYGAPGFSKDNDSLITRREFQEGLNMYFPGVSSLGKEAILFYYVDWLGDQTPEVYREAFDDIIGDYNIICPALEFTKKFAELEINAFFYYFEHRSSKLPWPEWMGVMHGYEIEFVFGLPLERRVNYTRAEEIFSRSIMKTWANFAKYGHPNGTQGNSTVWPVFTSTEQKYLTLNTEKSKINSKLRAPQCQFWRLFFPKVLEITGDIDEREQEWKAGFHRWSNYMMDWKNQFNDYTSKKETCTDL

Take `O=C(Oc1ccc(-c2cc(=O)c3c(O)c(O)c(O)cc3o2)cc1)N1CCC(Cc2ccccc2)CC1` [4-(Phenylmethyl)-1-piperidinecarboxylic acid-4-(5,6,7-trihydroxy-4-oxo-4H-1-benzopyran-2-yl)phenyl ester (7h)]: the IC50 (in general, the midpoint of a concentration-inhibition curve) against Acetylcholinesterase worked out at 62.2 µM; in assay [1], 35 µM. With `CCN(CC)C(=O)Oc1ccc(-c2cc(=O)c3c(OC)c(OC)c(OC)cc3o2)cc1` [N,N-diethylcarbamic acid-4-(5,6,7-trimethoxy-4-oxo-4H-1-benzopyran-2-yl)phenyl ester (7i)], half-maximal inhibition in assay [1] (IC50) required 8.2 µM. Turning to `CN(C)C(=O)Oc1ccc(-c2cc(=O)c3c(O)c(O)c(O)cc3o2)cc1` [N,N-dimethylcarbamic acid-4-(5,6,7-trihydroxy-4-oxo-4H-1-benzopyran-2-yl)phenyl ester (7a)], the half-inhibitory concentration (IC50) came to 6.3 µM on Acetylcholinesterase and 32 µM in assay [1]. In the case of `O=C(Oc1ccc(-c2cc(=O)c3c(O)c(O)c(O)cc3o2)cc1)N1CCCCC1` [1-Piperidinecarboxylic acid-4-(5,6,7-trihydroxy-4-oxo-4H-1-benzopyran-2-yl)phenyl ester (7g)], the 50% inhibitory concentration (IC50) is 12.6 µM against Acetylcholinesterase and over 100 µM in assay [1]. For `O=C(Oc1ccc(-c2cc(=O)c3c(O)c(O)c(O)cc3o2)cc1)N1CCOCC1` [4-Morpholinecarboxylic acid-4-(5,6,7-trihydroxy-4-oxo-4H-1-benzopyran-2-yl)phenyl ester (7f)], in that order: 28.5 µM and over 100 µM.

As to `CC(C)N(C(=O)Oc1ccc(-c2cc(=O)c3c(O)c(O)c(O)cc3o2)cc1)C(C)C` [N,N-bis(1-methylethyl)carbamic acid-4-(5,6,7-trihydroxy-4-oxo-4H-1-benzopyran-2-yl)phenyl ester (7c)], the results for the IC50 (against Acetylcholinesterase; in assay [1]) were 4 µM and 42 µM, respectively. For `CCN(CC)C(=O)Oc1ccc(-c2cc(=O)c3c(O)c(O)c(O)cc3o2)cc1` [N,N-diethylcarbamic acid-4-(5,6,7-trihydroxy-4-oxo-4H-1-benzopyran-2-yl)phenyl ester (7b)], in that order: 1.2 µM and 22.1 µM. Consider `O=C(Oc1ccc(-c2cc(=O)c3c(O)c(O)c(O)cc3o2)cc1)N1CCCC1` [1-Pyrrolidinecarboxylic acid-4-(5,6,7-trihydroxy-4-oxo-4H-1-benzopyran-2-yl)phenyl ester (7e)], for which the IC50 was 40.7 µM against Acetylcholinesterase and over 100 µM in assay [1]. Take `CCN(CC)C(=O)Oc1ccc(-c2cc(=O)c3c(OC(C)=O)c(OC(C)=O)c(OC(C)=O)cc3o2)cc1` [N,N-diethylcarbamic acid-4-[5,6,7-tris(acetyloxy)-4-oxo-4H-1-benzopyran-2-yl]phenyl ester (7k)]: the concentration for half-maximal inhibition (IC50) against Acetylcholinesterase worked out at 1.5 µM; in assay [1], 50.3 µM. For `O=c1cc(-c2ccc(O)cc2)oc2cc(O)c(O)c(O)c12` [5,6,7-trihydroxy-2-(4-hydroxyphenyl)-4H-chromen-4-one], in that order: over 100 µM and over 100 µM. For `CCN(CC)C(=O)Oc1ccc(-c2cc(=O)c3c(O)c(OC(C)=O)c(OC(C)=O)cc3o2)cc1` [N,N-diethylcarbamic acid-4-[6,7-bis(acetyloxy)-5-hydroxy-4-oxo-4H-1-benzopyran-2-yl]phenyl ester (7l)], in that order: 2 µM and 62.1 µM. As to `CCN(CC)C(=O)Oc1ccc(-c2cc(=O)c3c(O)c(OC)c(OC)cc3o2)cc1` [N,N-diethylcarbamic acid-4-(5-hydroxy-6,7-dimethoxy-4-oxo-4H-1-benzopyran-2-yl)phenyl ester (7j)], half-maximal inhibition in assay [1] (IC50) was put at 22.6 µM. Regarding `CCN(C)C(=O)Oc1ccc(-c2cc(=O)c3c(O)c(O)c(O)cc3o2)cc1` [N-ethyl-N-methylcarbamic acid-4-(5,6,7-trihydroxy-4-oxo-4H-1-benzopyran-2-yl)phenyl ester (7d)], the IC50 against Acetylcholinesterase worked out at 2.7 µM; in assay [1] it was 30.5 µM.
